In patent US20090156642A1, “5-Membered heterocyclic compound” (Takeda Pharmaceutical Company Limited, priority 2007, published 2009):
Where a name gives a salt, the structure may show the parent alone.

target: T1, proton, potassium-adenosine triphosphatase (H+,K+-ATPase) (Sus scrofa, UniProt P19156); assay: Proton potassium-adenosine triphosphatase (H+,K+-ATPase) inhibitory activity test; type: biochemical; details: swine gastric mucous membrane microsomal fraction, pH 6.5, 37° C., 10 mmol/L potassium chloride
T1 construct: a gastric mucous membrane microsomal fraction was prepared from the stomach of swine
T1 sequence (P19156 2-1034): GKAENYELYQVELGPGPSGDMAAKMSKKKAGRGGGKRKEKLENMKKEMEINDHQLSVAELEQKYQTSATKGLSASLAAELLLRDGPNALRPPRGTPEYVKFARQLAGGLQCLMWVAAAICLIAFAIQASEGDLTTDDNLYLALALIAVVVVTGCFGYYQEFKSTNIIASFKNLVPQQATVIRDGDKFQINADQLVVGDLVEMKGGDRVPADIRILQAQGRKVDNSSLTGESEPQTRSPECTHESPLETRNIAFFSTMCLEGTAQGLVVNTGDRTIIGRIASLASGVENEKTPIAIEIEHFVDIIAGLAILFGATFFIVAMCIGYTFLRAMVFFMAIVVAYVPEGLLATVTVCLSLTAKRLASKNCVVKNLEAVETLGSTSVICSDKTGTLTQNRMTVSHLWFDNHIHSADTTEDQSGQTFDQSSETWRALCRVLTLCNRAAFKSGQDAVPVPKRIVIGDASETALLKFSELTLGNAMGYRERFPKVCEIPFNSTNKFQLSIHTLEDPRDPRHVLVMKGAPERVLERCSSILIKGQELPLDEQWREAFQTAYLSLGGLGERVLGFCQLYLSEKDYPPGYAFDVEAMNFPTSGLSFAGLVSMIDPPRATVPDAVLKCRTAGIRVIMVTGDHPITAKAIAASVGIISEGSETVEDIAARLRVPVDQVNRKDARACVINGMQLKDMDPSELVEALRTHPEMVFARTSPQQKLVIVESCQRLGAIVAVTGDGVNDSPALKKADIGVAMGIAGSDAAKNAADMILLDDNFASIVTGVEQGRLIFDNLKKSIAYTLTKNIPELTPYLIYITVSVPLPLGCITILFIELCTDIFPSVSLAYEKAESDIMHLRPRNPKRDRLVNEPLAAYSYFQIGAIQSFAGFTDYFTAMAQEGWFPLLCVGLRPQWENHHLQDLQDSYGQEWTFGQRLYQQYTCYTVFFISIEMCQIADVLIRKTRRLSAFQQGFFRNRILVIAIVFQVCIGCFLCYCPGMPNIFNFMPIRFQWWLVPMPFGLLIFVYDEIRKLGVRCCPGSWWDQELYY
T1 sequence (P18434 whole entry partner): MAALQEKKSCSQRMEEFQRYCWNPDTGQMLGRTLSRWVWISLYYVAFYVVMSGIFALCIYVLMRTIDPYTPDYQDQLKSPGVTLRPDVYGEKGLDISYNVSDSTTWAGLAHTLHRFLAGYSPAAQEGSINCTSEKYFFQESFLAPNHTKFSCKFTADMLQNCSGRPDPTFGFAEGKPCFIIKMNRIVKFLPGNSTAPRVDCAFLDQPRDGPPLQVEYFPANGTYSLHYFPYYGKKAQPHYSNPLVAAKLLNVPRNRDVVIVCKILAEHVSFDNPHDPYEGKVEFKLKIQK
Protocol: Proton Potassium-Adenosine Triphosphatase (H^+,K^+-ATPase) Inhibitory Activity Test
According to the method [Biochim. Biophys. Acta, 728, 31 (1983)] of Wallmark et al., a gastric mucous membrane microsomal fraction was prepared from the stomach of swine. First, the stomach was removed, washed with tap water, and immersed in 3 mol/L brine, and the surface of the mucous membrane was wiped with a paper towel. The gastric mucous membrane was detached, chopped, and homogenized in a 0.25 mol/L saccharose solution (pH 6.8) containing 1 mmol/L EDTA and 10 mmol/L tris-hydrochloric acid using polytron (Kinematica). The obtained homogenate was centrifuged at 20,000×g for 30 min and the supernatant was centrifuged at 100,000×g for 90 min. The precipitate was suspended in 0.25 mol/L saccharose solution, the suspension was superimposed on a 0.25 mol/L saccharose solution containing 7.5% Ficoll, and centrifuged at 100,000×g for 5 hr. The fraction containing the interface between the both layers was recovered, and centrifugally washed with 0.25 mol/L saccharose solution.
The obtained microsomal fraction was used as a proton, potassium-adenosine triphosphatase standard product.
To 40 μL of a 50 mmol/L HEPES-tris buffer (5 mmol/L magnesium chloride, 10 mmol/L potassium chloride, 10 μmol/L valinomycin, pH=6.5) containing 2.5 μg/mL (based on the protein concentration) of the enzyme standard product was added a test compound (5 μL) dissolved in a 10% aqueous dimethyl sulfoxide solution, and the mixture was incubated at 37° C. for 30 min. The enzyme reaction was started by adding 5 μL of a 2 mmol/L adenosine triphosphate tris salt solution (50 mmol/L HEPES-tris buffer (5 mmol/L magnesium chloride, pH 6.5)). The enzyme reaction was carried out at 37° C. for 20 min, and 15 μL of a malachite green solution (0.12% malachite green solution in sulfuric acid (2.5 mol/L), 7.5% ammonium molybdate and 11% Tween 20 were mixed at a ratio of 100:25:2) was added to quench the reaction. After allowing to stand at room temperature for 15 min, the resulting reaction product of inorganic phosphorus with malachite green was colorimetrically determined at a wavelength of 610 nm. In addition, the amount of the inorganic phosphoric acid in the reaction solution free of potassium chloride was measured in the same manner, which was subtracted from the inorganic phosphoric acid amount in the presence of potassium chloride to determine the proton, potassium-adenosine triphosphatase activity. The inhibitory rate (%) was determined from the activity value of the control and the activity values of various concentrations of the test compound, and the 50% inhibitory concentration (IC50) of the proton, potassium-adenosine triphosphatase was determined.

Compound | IC50 [nM]
CNCc1cc(-c2cccnc2F)c(S(=O)(=O)c2ccccc2)s1 [Example 2, 1-[4-(2-fluoropyridin-3-yl)-5-(phenylsulfonyl)-2-thienyl]-N-methylmethanamine hydrochloride] | 32
CNCc1cc(-c2ccccc2F)c(S(=O)(=O)c2cccc(OC)c2)s1 [Example 4, 1-{4-(2-fluorophenyl)-5-[(3-methoxyphenyl)sulfonyl]-2-thienyl}-N-methylmethanamine fumarate] | 64
CNCc1nc(-c2ccccc2F)c(S(=O)(=O)c2cccc(OC)c2)s1 [Example 13, 1-{4-(2-fluorophenyl)-5-[(3-methoxyphenyl)sulfonyl]-1,3-thiazol-2-yl}-N-methylmethanamine hydrochloride] | 46
CNCc1cn(S(=O)(=O)c2cccs2)c(-c2ccccc2F)n1 [Example 18, 1-[2-(2-fluorophenyl)-1-(2-thienylsulfonyl)-1H-imidazol-4-yl]-N-methylmethanamine fumarate] | 64
CNCc1cc(-c2ccccc2F)c(S(=O)(=O)c2ccccc2)s1 [Example 19, 1-[4-(2-fluorophenyl)-5-(phenylsulfonyl)thiophen-2-yl]-N-methylmethanamine hydrochloride] | 88
CNCc1cc(-c2cccnc2F)c(S(=O)(=O)c2cccnc2)s1 [Example 48, 1-[4-(2-fluoropyridin-3-yl)-5-(pyridin-3-ylsulfonyl)thiophen-2-yl]-N-methylmethanamine] | 240
CNCc1nc(-c2ccccc2F)c(S(=O)(=O)c2cccnc2)s1 [Example 56, 1-[4-(2-fluorophenyl)-5-(pyridin-3-ylsulfonyl)-1,3-thiazol-2-yl]-N-methylmethanamine fumarate] | 240
CNCc1nc(-c2cccnc2F)c(S(=O)(=O)c2cccnc2)s1 [Example 60, 1-[4-(2-fluoropyridin-3-yl)-5-(pyridin-3-ylsulfonyl)-1,3-thiazol-2-yl]-N-methylmethanamine] | 310
CNCc1cc(S(=O)(=O)c2cccnc2)c(-c2cccnc2F)s1 [Example 65, 1-[5-(2-fluoropyridin-3-yl)-4-(pyridin-3-ylsulfonyl)thiophen-2-yl]-N-methylmethanamine] | 250
CNCc1cn(S(=O)(=O)c2ccccc2)c(-c2ccccc2F)n1 [Example 67, 1-[2-(2-fluorophenyl)-1-(phenylsulfonyl)-1H-imidazol-4-yl]-N-methylmethanamine fumarate] | 28
CNCc1cc(S(=O)(=O)c2ccccc2)n(-c2cccnc2F)n1 [Example 79, 1-[1-(2-fluoropyridin-3-yl)-5-(phenylsulfonyl)-1H-pyrazol-3-yl]-N-methylmethanamine] | 190
CNCc1cc(S(=O)(=O)c2cccnc2)n(-c2ccccc2F)n1 [Example 81, 1-[1-(2-fluorophenyl)-5-(pyridin-3-ylsulfonyl)-1H-pyrazol-3-yl]-N-methylmethanamine] | 130
CNCc1cc(S(=O)(=O)c2cccc(C#N)c2)n(-c2ccccc2Cl)n1 [Example 86, 3-({1-(2-chlorophenyl)-3-[(methylamino)methyl]-1H-pyrazol-5-yl}sulfonyl)benzonitrile hydrochloride] | 84
CNCc1cc(S(=O)(=O)c2cccnc2)n(-c2ccccc2Cl)n1 [Example 87, 1-[1-(2-chlorophenyl)-5-(pyridin-3-ylsulfonyl)-1H-pyrazol-3-yl]-N-methylmethanamine] | 86
CNCc1cc(S(=O)(=O)c2ccc(C)nc2)n(-c2ccccc2Cl)n1 [Example 89, 1-{1-(2-chlorophenyl)-5-[(6-methylpyridin-3-yl)sulfonyl]-1H-pyrazol-3-yl}-N-methylmethanamine] | 110
CNCc1cc(S(=O)(=O)c2cccnc2)n(-c2cccc(F)c2F)n1 [Example 98, 1-[1-(2,3-difluorophenyl)-5-(pyridin-3-ylsulfonyl)-1H-pyrazol-3-yl]-N-methylmethanamine] | 220
CNCc1cc(S(=O)(=O)c2ccc(C)nc2)n(-c2cccc(F)c2F)n1 [Example 99, 1-{1-(2,3-difluorophenyl)-5-[(6-methylpyridin-3-yl)sulfonyl]-1H-pyrazol-3-yl}-N-methylmethanamine] | 76
CNCc1cc(S(=O)(=O)c2cccnc2)n(-c2cccc(F)c2Cl)n1 [Example 113, 1-[1-(2-chloro-3-fluorophenyl)-5-(pyridin-3-ylsulfonyl)-1H-pyrazol-3-yl]-N-methylmethanamine fumarate] | 180
